From patent publication US5962284A, “Acrylamidase enzymes” (Ciba Specialty Chemicals Water Treatments Limited, priority 1997, dated 1999)

Columns and labels:
[1] = tested on: acrylamidase produced by Rhodococcus erythropolis NCIMB 40889; experiment: Adipic acid activity assay (amidase activity at pH 4 with added adipic acid); assay type: biochemical; details: pH 4, 50 mM acrylamide, 30° C.
Text: (§1) For measurement of Km (see below) the same conditions can be used, except that the acrylamide concentration is of course varied. One unit (U) of amidase activity hydrolyses 1 micromole of acrylamido per minute under the above conditions. The specific activity is the amount of units of activity present per dry gram of cell material. The relative activity is the % activity relative to activity at ph 7.
In this specification, comparison of acrylamidase activity in the presence of adipic acid and in the absence of adipic acid is measured by the following adipic acid activity assay:
To an assay mixture at pH 4 as described for measurement of activity at pH 4 and pH 7 is added adipic acid to give the concentrations required. Cell suspension is then added to the assay mixture. The amidase activity of each suspension is then measured. The relative activity is % activity relative to activity in the absence of adipic acid.

[2] = tested on: acrylamidase produced by Rhodococcus erythropolis NCIMB 40889; details: read-out: Km for acrylamide; pH 4.0, 30° C., cell suspension
Text: as §1
(§2) In this specification, Km is Km for acrylamide measured at pH 4.0.

[3] = tested on: acrylamidase produced by Rhodococcus species NCIMB 40755; details: read-out: Km for acrylamide; pH 4.0, 30° C., cell suspension
Text: as §1, §2

Row | Compound | Relative Activity (%) relative to activity in the absence of adipic acid ([1]; 5 mM adipic acid) | Relative Activity (%) relative to activity in the absence of adipic acid ([1]; 10 mM adipic acid) | Relative Activity (%) relative to activity in the absence of adipic acid ([1]; 15 mM adipic acid) | Relative Activity (%) relative to activity in the absence of adipic acid ([1]; 22.5 mM adipic acid) | Relative Activity (%) relative to activity in the absence of adipic acid ([1]; 25 mM adipic acid) | Relative Activity (%) relative to activity in the absence of adipic acid ([1]; 50 mM adipic acid) | Km [2] | Km [3]
1 | O=C(O)CCCCC(=O)O [Adipic Acid, adipic acid] | 95% | 69% | 38% | 30% | 29% | 12% | – | –
2 | C=CC(N)=O [acrylamide] | – | – | – | – | – | – | 11.6 mM | 6 mM
